Data from PubChem BioAssay AID1963962 (Molecular Pharmacology Branch, DTP, NCI, 2024).

System: 967376-340-R-J2-PDC multicell spheroid viability
Assay: Anticancer human tumor 967376-340-R-J2-PDC patient-derived colon adenocarcinoma cell line growth inhibition [PI3K]
Details: for IC50: curve of first compound; for viability, T/C: stronger effect = lower value
Procedure, shortened: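 Multi-cell spheroids combine tumor cells with HUVEC and human MSCs, treated with targeted agents alone or with inavolisib, alpelisib, duvelisib or copanlisib. Concentrations fall in half-log steps from at or near clinical Cmax, or from 10 microM where Cmax is unknown; viability read-out.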

[1] = second compound 0.0316 µM, first compound 0.0316 µM
[2] = second compound 0.0316 µM, first compound 0.1 µM
[3] = second compound 0.0316 µM, first compound 0.316 µM
[4] = second compound 0.0316 µM, first compound 1 µM
[5] = second compound 0.1 µM, first compound 0.0316 µM
[6] = second compound 0.1 µM, first compound 0.1 µM
[7] = second compound 0.1 µM, first compound 0.316 µM
[8] = second compound 0.1 µM, first compound 1 µM
[9] = second compound 0.316 µM, first compound 0.0316 µM
[10] = second compound 0.316 µM, first compound 0.1 µM
[11] = second compound 0.316 µM, first compound 0.316 µM
[12] = second compound 0.316 µM, first compound 1 µM
[13] = second compound 1 µM, first compound 0.0316 µM
[14] = second compound 1 µM, first compound 0.1 µM
[15] = second compound 1 µM, first compound 0.316 µM
[16] = second compound 1 µM, first compound 1 µM
[17] = second compound 3.16 µM, first compound 0.0316 µM
[18] = second compound 3.16 µM, first compound 0.1 µM
[19] = second compound 3.16 µM, first compound 0.316 µM
[20] = second compound 3.16 µM, first compound 1 µM
[21] = second compound 10 µM, first compound 0.0316 µM
[22] = second compound 10 µM, first compound 0.1 µM
[23] = second compound 10 µM, first compound 0.316 µM
[24] = second compound 10 µM, first compound 1 µM
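Note: spheroids exposed to agents for 7 days before read-out.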
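Throughout, for viability, T/C: luminescence used as surrogate of cell viability.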

`CC(C)NCC(C(=O)N1CCN(c2ncnc3c2C(C)CC3O)CC1)c1ccc(Cl)cc1` (centres undefined) + Cc1nc(NC(=O)N2CCCC2C(N)=O)sc1-c1ccnc(C(C)(C)C(F)(F)F)c1 was tested, and the IC50 (second compound 0.0316 µM) was greater than 10000 nM, the IC50 (second compound 0.1 µM) was greater than 10000 nM and the IC50 (second compound 0.316 µM) was greater than 10000 nM. It also gave an IC50 (second compound 1 µM) greater than 10000 nM, an IC50 (second compound 3.16 µM) greater than 10000 nM and an IC50 (second compound 10 µM) greater than 10000 nM. The viability, T/C [1] was 118%, the viability, T/C [2] was 100% and the viability, T/C [3] was 115%. The viability, T/C [4] was 80.5%, the viability, T/C (second compound 0.0316 µM, first compound 3.16 µM) was 77.8% and the viability, T/C (second compound 0.0316 µM, first compound 10 µM) was 80.8%. It also gave a viability, T/C [5] of 96.4%, a viability, T/C [6] of 82.3% and a viability, T/C [7] of 85.1%. It also gave a viability, T/C [8] of 70.3%, a viability, T/C (second compound 0.1 µM, first compound 3.16 µM) of 68.4% and a viability, T/C (second compound 0.1 µM, first compound 10 µM) of 87%. For the same compound, the viability, T/C [9] was 88.6%, the viability, T/C [10] was 78.6% and the viability, T/C [11] was 65.5%. It also gave a viability, T/C [12] of 81.1%, a viability, T/C (second compound 0.316 µM, first compound 3.16 µM) of 84% and a viability, T/C (second compound 0.316 µM, first compound 10 µM) of 70%. It also gave a viability, T/C [13] of 62.3%, a viability, T/C [14] of 64.2% and a viability, T/C [15] of 73%. The viability, T/C [16] was 78.4%, the viability, T/C (second compound 1 µM, first compound 3.16 µM) was 72.3% and the viability, T/C (second compound 1 µM, first compound 10 µM) was 63.5%. For the same compound, the viability, T/C [17] was 67.1%, the viability, T/C [18] was 68% and the viability, T/C [19] was 56.8%. It also gave a viability, T/C [20] of 50.7%, a viability, T/C (second compound 3.16 µM, first compound 3.16 µM) of 62.4% and a viability, T/C (second compound 3.16 µM, first compound 10 µM) of 57.4%. The viability, T/C [21] was 56%, the viability, T/C [22] was 54.8% and the viability, T/C [23] was 52.4%. For the same compound, the viability, T/C [24] was 49.1%, the viability, T/C (second compound 10 µM, first compound 3.16 µM) was 55.6% and the viability, T/C (second compound 10 µM, first compound 10 µM) was 50.5%.
Compound `CCN1CCN(Cc2ccc(Nc3ncc(F)c(-c4cc(F)c5nc(C)n(C(C)C)c5c4)n3)nc2)CC1` + Cc1nc(NC(=O)N2CCCC2C(N)=O)sc1-c1ccnc(C(C)(C)C(F)(F)F)c1 has an IC50 (second compound 0.0316 µM) greater than 1000 nM, an IC50 (second compound 0.1 µM) greater than 1000 nM and an IC50 (second compound 0.316 µM) greater than 1000 nM. It also gave an IC50 (second compound 1 µM) of 162 nM, an IC50 (second compound 3.16 µM) of 77.4 nM and an IC50 (second compound 10 µM) of less than 3.16 nM. It also gave a viability, T/C (second compound 0.0316 µM, first compound 0.00316 µM) of 107%, a viability, T/C (second compound 0.0316 µM, first compound 0.01 µM) of 64.6% and a viability, T/C [1] of 90.9%. It also gave a viability, T/C [2] of 77%, a viability, T/C [3] of 77.8% and a viability, T/C [4] of 64.7%. The viability, T/C (second compound 0.1 µM, first compound 0.00316 µM) was 109%, the viability, T/C (second compound 0.1 µM, first compound 0.01 µM) was 72.5% and the viability, T/C [5] was 90.5%. It also gave a viability, T/C [6] of 67.4%, a viability, T/C [7] of 54.3% and a viability, T/C [8] of 58.9%. The viability, T/C (second compound 0.316 µM, first compound 0.00316 µM) was 75.8%, the viability, T/C (second compound 0.316 µM, first compound 0.01 µM) was 82.1% and the viability, T/C [9] was 64.2%. It also gave a viability, T/C [10] of 58.4%, a viability, T/C [11] of 60.8% and a viability, T/C [12] of 57.4%. For the same compound, the viability, T/C (second compound 1 µM, first compound 0.00316 µM) was 56%, the viability, T/C (second compound 1 µM, first compound 0.01 µM) was 72% and the viability, T/C [13] was 58.4%. The viability, T/C [14] was 46.1%, the viability, T/C [15] was 49.4% and the viability, T/C [16] was 32.8%. The viability, T/C (second compound 3.16 µM, first compound 0.00316 µM) was 62.3%, the viability, T/C (second compound 3.16 µM, first compound 0.01 µM) was 78.5% and the viability, T/C [17] was 59%. The viability, T/C [18] was 49%, the viability, T/C [19] was 44.1% and the viability, T/C [20] was 41.5%. For the same compound, the viability, T/C (second compound 10 µM, first compound 0.00316 µM) was 47.1%, the viability, T/C (second compound 10 µM, first compound 0.01 µM) was 49% and the viability, T/C [21] was 45.4%. It also gave a viability, T/C [22] of 37%, a viability, T/C [23] of 40.3% and a viability, T/C [24] of 27.1%.
